Data reported in US8481582B2, “1,3-dihydroimidazole-2-thione derivatives as inhibitors of dopamine-beta-hydroxylase” (Bial-Portela & CA, S.A., priority 2007, dated 2013).

Legend:
[1] = system: noradrenaline levels in the heart and parietal cortex; test: Noradrenaline levels in heart and parietal cortex of mice 9 h after oral dosing; type: in vivo, Male NMRI mice; settings: oral gavage, 9 h post dose, FIG. 1, compared with prior art DβH inhibitors
Description: Male NMRI mice were obtained from Harlan-Interfauna (Spain) and were kept 10 per cage under controlled environmental conditions (12 h light/dark cycle and room temperature 22±1° C.). Food and tap water were allowed ad libitum and experimentation was performed during daylight hours.
At time=0 h, animals were administered with either test compounds (see FIG. 2) at a given dose or vehicle (water) delivered orally via gavage. At 9 h post dose, the animals were sacrificed by decapitation and heart (left atrium and left ventricle) and brain (parietal cortex) were isolated, weighed and stored in a volume of 0.2 M perchloric acid for 12 h at 4° C. in the dark. Post incubation, the resulting supernatants were collected by centrifuge filtration of incubates ([…]/10 min/˜5000 rpm, 4° C.). Supernatants were stored frozen at −80° C. until analysis. Quantification of dopamine and noradrenaline in supernatants was performed by high pressure liquid chromatography with electrochemical detection.

[2] = central as well as peripheral effects; cited from earlier work

SMILES	effect on noradrenaline levels in the heart and parietal cortex (heart vs brain selectivity) [1]	crossing of the blood brain barrier (BBB) [2]
Fc1cc(F)c2c(c1)CC(n1c(CCNCc3ccccc3)c[nH]c1=S)CO2 (single isomer, unassigned) [formula X]	marked selectivity for the heart compared to the brain	
NCc1c[nH]c(=S)n1[C@H]1CCc2c(F)cc(F)cc2C1 [nepicastat]		cross the blood brain barrier
